Patent US12702660B2, “Method for treating cancer with an oral dosage form of an estrogen receptor-alpha inhibitor” (Eisai R&D Management Co., Ltd., priority 2019, dated 2026)
Read-outs that look alike come from different tables or passages of the source.

Columns and labels:
Ki67 = assay: Pharmacodynamics: Ki67 levels post-treatment; type: in vivo, human; conditions: across all dose levels post-treatment
Experimental: Methods were used to analyze whether H3B-6545 inactivates both wild-type and mutant ERα by targeting cysteine 530 and enforcing a unique antagonist conformation. Methods: Women with locally advanced or metastatic HR+BC are treated (tx) with H3B-6545 drug product administered once daily orally by capsule over a 28 day cycle after progression on at least one hormonal therapy and at least one additional therapy/regimen. Dose escalation uses a 3+3 design with the option to backfill previously cleared doses and allows for intrapatient dose escalation. This example explored the safety, pharmacokinetics and pharmacodynamics of H3B-6545 in women with HR+BC to identify a recommended subsequent dose for testing.

[1] = Plasma PK of 450 mg capsules in fasted and fed patients, dose expansion; type: in vivo, human; conditions: 450 mg QD capsules; for CLss/F / AUC(0-inf) / Cmax / half-life / AUC(0-t) / Vd / Vd/F: Geometric Mean (GeoCV %); for Tlag / Tmax: Median (Min, Max); for AUC0-24 (per 1 mg of API) / AUC0-inf (per 1 mg of API) / AUC0-t (per 1 mg of API) / Cmax (per 1 mg of API): normalized from Table 13; for AUC(0-inf) / Cmax / half-life / AUC(0-t) / Vd / Vd/F / Tmax: human, plasma, oral, 450 mg; for Vd: read-out: Vss; for Vd/F: read-out: Vz/F
Experimental: Blood samples were collected at the planned time points from each patient and centrifuged. The plasma portion of each sample was then transferred to a K2EDTA tube, which was then shipped to a bioanalytical lab for concentration measurement using LC-MS/MS. The concentration data were then analyzed using Phoenix® WinNonlin software to obtain PK parameters. The obtained PK parameters were further summarized using analytical software.
Blood samples (approximately 5 mL each) were collected from human patients pre-dose and at various hourly time points post-dose. Plasma concentrations of H3B-6545 were determined using a validated high-performance liquid chromatography/tandem mass spectrometry (LC-MS/MS) method. The lower limit of quantification was 0.100 ng/mL.
The PK Analysis Set included subjects who received H3B-6545 drug product in capsules or tablets and had sufficient evaluable plasma concentration data to derive at least 1 primary PK parameter in each treatment. Plasma concentrations of H3B-6545 (as free base) were tabulated and summarized at each nominal time using descriptive statistics (number of subjects, arithmetic mean with standard deviation [SD], coefficient of variation [CV %], geometric mean, median, minimum, and maximum) as appropriate. Individual and mean (±SD) plasma concentration-time profiles were provided for each treatment.
Pharmacokinetic parameters of H3B-6545 were calculated using noncompartmental methods, using an appropriate model for plasma data and extravascular administration. The PK parameters included, but were not limited to, area under the curve to the time of the last quantifiable concentration (AUC0-t), maximum concentration (Cmax), and time at which the maximum concentration occurred (tmax). If data permitted, the area under the plasma concentration-time curve extrapolated to infinity (AUC0-inf), terminal elimination half-life (t1/2), apparent total body clearance (CL/F), total systemic clearance after oral administration at steady state (CLss/F), apparent volume of distribution during the terminal phase (Vz/F), apparent steady-state volume of distribution (Vss), accumulation ratio for Cmax (RCmax) and accumulation ratio of AUC0-24 (RAUC) were also derived.
Table 3 details PK parameters and profiles of human patients receiving capsules prepared as in Example 1. Patients received a total equivalent dosage of 450 mg of Formula I, as identified in Table 13. Table 14 has normalized the AUC0-t, AUC0-24, AUC0-inf and Cmax PK parameters illustrated in Table 13 to plasma PK parameters per 1 mg of active pharmaceutical ingredient (API).

In the case of CN(C)C(=O)/C=C/CNCCOc1ccc(/C(=C(/CC(F)(F)F)c2ccccc2)c2ccc3[nH]nc(F)c3c2)cn1 [H3B-6545, (E)-N,N-dimethyl-4-[2-[5-[(Z)-4,4,4-trifluoro-1-(3-fluoro-1H-indazol-5-yl)-2-phenylbut-1-enyl]pyridin-2-yl]oxyethylamino]but-2-enamide], the “decrease in Ki67 levels” value (Ki67) is reported as 50%, the CLss/F ([1]; Dose Expansion-Fasted) is reported as 36.7 (65.4); 18 L/h and the Tlag ([1]; Dose Expansion-Fasted) is reported as 0 (0-0); 18 h. The “AUC0-24 (per 1 mg of API)” value ([1]; Dose Expansion-Fasted) was 27.2 ng·h/mL/mg, the “AUC0-inf (per 1 mg of API)” value ([1]; Dose Expansion-Fasted) was 36.6 ng·h/mL/mg and the “AUC0-t (per 1 mg of API)” value ([1]; Dose Expansion-Fasted) was 27.7 ng·h/mL/mg. The “Cmax (per 1 mg of API)” value ([1]; Dose Expansion-Fasted) was 2.4 ng/mL/mg, the CLss/F ([1]; Dose Expansion-Fed) was 20.5 (42.7); 13 L/h and the Tlag ([1]; Dose Expansion-Fed) was 0 (0-0); 17 h. For the same molecule, the “AUC0-24 (per 1 mg of API)” value ([1]; Dose Expansion-Fed) was 43.3 ng·h/mL/mg, the “AUC0-inf (per 1 mg of API)” value ([1]; Dose Expansion-Fed) was 56.8 ng·h/mL/mg and the “AUC0-t (per 1 mg of API)” value ([1]; Dose Expansion-Fed) was 35.8 ng·h/mL/mg. The “Cmax (per 1 mg of API)” value ([1]; Dose Expansion-Fed) was 3.5 ng/mL/mg, the AUC(0-inf) ([1]; Dose Expansion-Fasted) was 16500 ng·h/mL and the Cmax ([1]; Dose Expansion-Fasted) was 1090 ng/mL. For the same molecule, the half-life ([1]; Dose Expansion-Fasted) was 10.9 h, the AUC(0-t) ([1]; Dose Expansion-Fasted, read-out: AUC0-24) was 12300 ng·h/mL and the AUC(0-t) ([1]; Dose Expansion-Fasted, read-out: AUC0-t) was 12500 ng·h/mL. The Vd ([1]; Dose Expansion-Fasted) was 597 L, the Vd/F ([1]; Dose Expansion-Fasted) was 566 L and the Tmax ([1]; Dose Expansion-Fasted) was 4 h. It also gave an AUC(0-inf) ([1]; Dose Expansion-Fed) of 25500 ng·h/mL, a Cmax ([1]; Dose Expansion-Fed) of 1560 ng/mL and a half-life ([1]; Dose Expansion-Fed) of 8.83 h. It also gave an AUC(0-t) ([1]; Dose Expansion-Fed, read-out: AUC0-24) of 19500 ng·h/mL, an AUC(0-t) ([1]; Dose Expansion-Fed, read-out: AUC0-t) of 16100 ng·h/mL and a Vd ([1]; Dose Expansion-Fed) of 350 L. The Vd/F ([1]; Dose Expansion-Fed) was 279 L and the Tmax ([1]; Dose Expansion-Fed) was 6 h.
